{"source": "patent US20210236532A1", "about": "“THERAPEUTIC AGENT FOR FRONTOTEMPORAL LOBAR DEGENERATION, METHOD FOR SCREENING THERAPEUTIC AGENT FOR FRONTOTEMPORAL LOBAR DEGENERATION AND METHOD FOR TREATING FRONTOTEMPORAL LOBAR DEGENERATION” (National University Corporation Tokyo Medical and Dental …, priority 2018, published 2021)", "type_in_all_cases": "in vivo", "key": {"[1]": {"system": "PGRN-KI mice", "assay": "Morris water maze test", "method": "(§1) The following two types of behavioral experiments (fear conditioning experiment and Morris water maze test) were performed, and an impaired cognitive response was found in the PGRN-KI mice of 12 weeks or older. Such an impaired response is a symptom similarly seen in frontotemporal lobar degeneration. It is to be noted that all behavioral tests are carried out according to the method indicated by Ito H. et al. (Mol Psychiatry. 2015 April; 20 (4): 459-471).\nA Morris water maze test was performed with the PGRN-KI mice and control mice (C57BL/6J mice without the knock-in). Specifically, the mice received a 60-second trial four times per day for 5 days, and the time period taken for each mouse to reach the platform was measured. […] This means that the cognitive response of the PGRN-KI mice was impaired as compared with the control mice.\n(§2) The knockdown of each gene was performed according to the following procedures: Lentiviral particles (2×10^5 titer units/100 μl) containing scrambled shRNA (sc-108080, manufactured by Santa Cruz Biotechnology), Tau-shRNA (sc-430402-V, manufactured by Santa Cruz Biotechnology), B-Raf shRNA (sc-63294-V, manufactured by Santa Cruz Biotechnology), or Tyro3-siRNA (iV037848, manufactured by ABM) were diluted to 1:4 with ACSF buffer (NaCl 125 mM; KCl 2.5 mM; NaH2PO4 1.25 mM; MgCl2 1 mM; CaCl2) 1 mM; NaHCO326 mM; and glucose 25 mM). […]"}, "[2]": {"system": "PGRN-KI mice", "assay": "Fear conditioning experiment (freezing reaction)", "method": "as §1\nA fear conditioning experiment was performed with the PGRN-KI mice and control mice (C57BL/6J mice without the knock-in). Specifically, the mice received electrical stimulation (0.4 mA, 2 s) on their paws along with sound stimulation (65 dB white noise, 30 s). Twenty-four hours later, the frequency of the freezing reaction in the mice was measured when the mice were subjected to the sound stimulation without the electrical stimulation in the same chamber. […] This means that the cognitive response of the PGRN-KI mice was impaired as compared with the control mice. […]"}, "[3]": {"system": "PGRN-KI mice", "assay": "Morphological analysis of spines (two-photon excitation microscope, IMARIS)", "method": "as §2, with “mM). Further, a plasmid vector (10 μg) containing scrambled shRNA (TG501653, manufactured by OriGene), PKCα-shRNA (TG501653, manufactured by OriGene), or Gas6-shRNA (sc-35451-SH, manufactured by Santa Cruz Biotechnology) was dissolved in 100 μl of in vivo-jetPEI (201-10G, manufactured by Polyplus-transfection).” for “mM).”\nImages of dendrites from the mice (at 12 weeks of age) knocked down for each gene were acquired using a two-photon excitation microscope. In addition, the number of spines was measured using “IMARIS software” (IMARIS 7.2.2, manufactured by Bitplane GmbH). […]\nImages of dendrites from the mice (at 12 weeks of age) in each administered group were acquired using a two-photon excitation microscope. In addition, the number of spines was measured using “IMARIS software” (IMARIS 7.2.2, manufactured by Bitplane GmbH). […]"}, "[4]": {"conditions": "PGRN-KI mice, treated vs untreated/unknocked-down PGRN-KI mice"}, "[5]": {"conditions": "control mice (C57BL/6J without the knock-in), with or without agent"}}, "data": [{"smiles": "Cn1c2ccccc2c2c3c(c4c5ccccc5n(CCC#N)c4c21)CNC3=O", "note": "[Go6976]", "values": [{"measurement": "cognitive response in the Morris water maze test", "setting": "[1]; [4]", "result": "significantly improved"}, {"measurement": "cognitive response in the Morris water maze test", "setting": "[1]; [5]", "result": "no change"}, {"measurement": "cognitive response in the fear conditioning experiment", "setting": "[2]; [4]", "result": "significantly improved"}, {"measurement": "cognitive response in the fear conditioning experiment", "setting": "[2]; [5]", "result": "no change"}, {"measurement": "number of spines", "setting": "[3]; PGRN-KI mice at 12 weeks of age, treated vs untreated/unknocked-down PGRN-KI mice", "result": "markedly higher number of spines"}, {"measurement": "number of spines", "setting": "[3]; control mice (C57BL/6J without the knock-in) at 12 weeks of age, with or without agent", "result": "no change"}]}]}
